# According to patent US8652231B2, “Metal complexes; use thereof for the preparation of compositions for agricultural use” (Timac Argo International, priority 2008, dated 2014):
# Assay: Capacity of the test compounds for keeping iron soluble in the presence of calcium
# Assay type: physicochemical
# Settings: 20 mg iron per liter, pH 7, 8, 9 and 10, CaCl2 0.020 M, after three days, filtered; FIG. 1
# Description: For each product tested, four solutions were prepared containing 20 milligrams of iron per liter and having respectively a pH of 7, 8, 9 and 10 (the pH having been adjusted with sodium hydroxide or hydrochloric acid).
# Four similar solutions were prepared, each containing calcium chloride CaCl2 (0.020 M).
# After three days, these solutions were filtered through filters with a pore size of 0.045 micrometer and the iron content in the […] was determined by inductively coupled plasma emission optical spectroscopy (ICP-EOS).
# The amount of iron remaining in solution in the presence of calcium ions was calculated using the following formula:
# [formula] in which: [Fe]pHi+Ca represents the concentration of iron in the filtrate from a solution (containing calcium chloride 0.020 M) with pH equal to i, expressed in milligrams per liter; [Fe]pHi represents the concentration of iron in the filtrate from a solution not containing calcium with pH equal to i, expressed in milligrams per liter. Results
substance,measurement,value
Citrate-Fe(III) Complex,iron remaining in solution in the presence of calcium ions,undergoes precipitation in the range of pH between the values of 9 and 10
